Values of other authors in patent publication EP2939710B1, “Active Mixtures” (Symrise AG, priority 2014, dated 2015).

Conditions: water (20° dH) at 20 °C, solid active agent

## Nc1nc2c(ncn2COCCO)c(=O)[nH]1 [Acyclovir, 2-Amino-1,9-dihydro-9-((2-hydroxyethoxy)methyl)-6H-Purin-6-one]
  solubility in water: less than 5 g/L
